Reference: patent publication US7728012B2, “Carboxamide compounds and their use as calpain inhibitors” (Abbott GmbH & Co. KG, priority 2006, dated 2010)

Experiments:
Type in all cases: biochemical
[1] = molecular target: T1, cathepsin B isolated from human liver (Homo sapiens, UniProt P07858); assay: Cathepsin B kinetic fluorescence enzyme inhibition assay; details: selectivity ratio versus calpain I
T1 construct: cathepsin B—isolated from human liver; purchased Calbiochem 219362; host or cells: human liver (tissue isolate)
How it was run: (§1)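 Kinetic fluorescence (ex 390/em 460 nm) at room temperature in 50 mM MES, 2 mM EDTA, 0.05% Brij 35, 2.5 mM L-cysteine, pH 6.0. Cathepsin B (liver, 0.25 nM) with 100 μM Z-Phe-Arg-AMC; cathepsin L (liver, 1 nM) with 2 μM Z-Phe-Arg-AMC; recombinant E. coli cathepsin S (0.5 nM) with 20 μM Z-Val-Val-Arg-AMC. Ki via Cheng-Prusoff.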

[2] = molecular target: T2, cathepsin L isolated from human liver (Homo sapiens, UniProt P07711); assay: Cathepsin L kinetic fluorescence enzyme inhibition assay; details: selectivity ratio versus calpain I
T2 construct: cathepsin L—isolated from human liver; purchased Calbiochem 219402; host or cells: human liver (tissue isolate)
How it was run: as §1

[3] = molecular target: T3, recombinant human cathepsin S (Homo sapiens, UniProt P25774); assay: Cathepsin S kinetic fluorescence enzyme inhibition assay; details: selectivity ratio versus calpain I
T3 construct: purchased Calbiochem 219343; host or cells: E. coli
How it was run: as §1

[4] = molecular target: T4, calpain-I isolated from human erythrocytes (Homo sapiens, UniProt P07384); assay: Calpain I kinetic fluorescence enzyme inhibition assay; details: apparent Ki from IC50 by Cheng-Prussoff; average of 2 to 4 dose-effect plots
T4 construct: calpain-I—isolated from human erythrocytes; purchased Calbiochem 208713; host or cells: human erythrocytes (tissue isolate)
T4 sequence (P07384 1-714): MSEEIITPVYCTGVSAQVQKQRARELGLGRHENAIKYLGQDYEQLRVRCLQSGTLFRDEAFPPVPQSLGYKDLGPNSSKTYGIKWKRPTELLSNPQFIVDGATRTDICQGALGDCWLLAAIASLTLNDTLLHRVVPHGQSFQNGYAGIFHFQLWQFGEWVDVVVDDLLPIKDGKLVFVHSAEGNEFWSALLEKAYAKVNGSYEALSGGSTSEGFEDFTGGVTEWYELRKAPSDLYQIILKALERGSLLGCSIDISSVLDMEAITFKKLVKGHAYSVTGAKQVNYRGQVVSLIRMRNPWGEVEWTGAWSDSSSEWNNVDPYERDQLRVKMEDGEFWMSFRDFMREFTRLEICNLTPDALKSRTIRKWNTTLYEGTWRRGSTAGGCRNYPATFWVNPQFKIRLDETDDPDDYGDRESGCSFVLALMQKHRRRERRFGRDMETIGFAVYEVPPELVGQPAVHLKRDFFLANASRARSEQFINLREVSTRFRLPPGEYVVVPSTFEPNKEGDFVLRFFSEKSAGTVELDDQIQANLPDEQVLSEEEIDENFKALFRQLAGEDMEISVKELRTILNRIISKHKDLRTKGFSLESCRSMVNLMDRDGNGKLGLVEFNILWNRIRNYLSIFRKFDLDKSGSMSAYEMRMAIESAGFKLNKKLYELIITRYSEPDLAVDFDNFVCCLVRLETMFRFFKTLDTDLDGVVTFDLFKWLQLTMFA
T4 sequence (P04632 1-268 partner): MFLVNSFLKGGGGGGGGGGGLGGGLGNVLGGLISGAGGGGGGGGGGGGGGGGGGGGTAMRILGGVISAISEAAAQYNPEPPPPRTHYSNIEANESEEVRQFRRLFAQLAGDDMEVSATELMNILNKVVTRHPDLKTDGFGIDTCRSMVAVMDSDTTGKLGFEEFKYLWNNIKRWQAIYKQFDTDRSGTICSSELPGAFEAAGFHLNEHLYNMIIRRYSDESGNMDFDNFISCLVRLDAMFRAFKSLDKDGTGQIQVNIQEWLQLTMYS

[5] = molecular target: T5, cathepsin K activated from recombinant human procathepsin K (Homo sapiens, UniProt P43235); assay: Cathepsin K kinetic fluorescence enzyme inhibition assay; details: selectivity ratio versus calpain I
T5 construct: purchased Calbiochem 342001; host or cells: E. coli
T5 sequence (P43235 115-329): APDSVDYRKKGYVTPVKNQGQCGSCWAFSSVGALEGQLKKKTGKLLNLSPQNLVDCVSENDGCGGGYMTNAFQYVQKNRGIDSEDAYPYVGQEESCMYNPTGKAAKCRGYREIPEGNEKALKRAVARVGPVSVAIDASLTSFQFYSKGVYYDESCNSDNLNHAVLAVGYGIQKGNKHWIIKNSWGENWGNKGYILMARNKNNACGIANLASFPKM

T3 sequence (P25774 115-331): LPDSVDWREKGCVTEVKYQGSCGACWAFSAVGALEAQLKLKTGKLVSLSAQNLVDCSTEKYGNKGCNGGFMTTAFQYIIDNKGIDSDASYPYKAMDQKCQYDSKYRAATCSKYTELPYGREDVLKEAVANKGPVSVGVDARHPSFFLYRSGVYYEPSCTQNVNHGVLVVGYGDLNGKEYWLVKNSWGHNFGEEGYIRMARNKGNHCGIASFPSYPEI
T2 sequence (P07711 114-333): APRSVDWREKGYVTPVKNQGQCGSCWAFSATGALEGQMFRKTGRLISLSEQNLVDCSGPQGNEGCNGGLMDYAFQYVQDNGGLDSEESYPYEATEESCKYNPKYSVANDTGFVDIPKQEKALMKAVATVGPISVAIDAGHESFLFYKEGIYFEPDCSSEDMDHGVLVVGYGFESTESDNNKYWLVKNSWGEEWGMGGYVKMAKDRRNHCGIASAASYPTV

Structure (SMILES)	Sel cat. B (Ki(cathepsin B)/Ki(calpain) ratio) [1]	Sel cat. L (Ki(cathepsin L)/Ki(calpain) ratio) [2]	Sel cat. S (Ki(cathepsin S)/Ki(calpain) ratio) [3]	Ki [4]	Sel cat. K (Ki(cathepsin K)/Ki(calpain) ratio) [5]
NC(=O)C(=O)C(Cc1ccccc1)NC(=O)c1cccnc1-n1ccc(-c2cccc3c2OCC3)n1 (centres unmarked) [Example 164, N-[3-Amino-2,3-dioxo-1-(phenylmethyl)propyl]-2-[3-(2,3-dihydro-1-benzofuran-7-yl)-1H-pyrazol-1-yl]pyridine-3-carboxamide]	+ (10≦Ki(cathepsin B)/Ki(calpain)<30)	++ (Ki(cathepsin L)/Ki(calpain) ratio of ≧50)	++ (Ki(cathepsin S)/Ki(calpain) ratio of ≧100)	≤ 40 nM	++ (Ki(cathepsin K)/Ki(calpain) ratio of ≧30)
NC(=O)C(=O)C(Cc1ccccc1)NC(=O)c1cccnc1-n1ccc(-c2cccc3cccnc23)n1 (centres unmarked) [Example 160, N-[3-amino-2,3-dioxo-1-(phenylmethyl)propyl]-2-(3-quinolin-8-yl-1H-pyrazol-1-yl)pyridine-3-carboxamide]	++ (Ki(cathepsin B)/Ki(calpain) ratio of ≧30)	++ (Ki(cathepsin L)/Ki(calpain) ratio of ≧50)	++ (Ki(cathepsin S)/Ki(calpain) ratio of ≧100)	40 to 100 nM	++ (Ki(cathepsin K)/Ki(calpain) ratio of ≧30)
COc1ccc2c(c1)-c1nn(-c3ncccc3C(=O)NC(Cc3ccccc3)C(=O)C(N)=O)cc1CO2 (centres unmarked) [Example 183, N-[3-Aamino-2,3-dioxo-1-(phenylmethyl)propyl]-2-[8-(methyloxy)chromeno[4,3-c]pyrazol-2(4H)-yl]pyridine-3-carboxamide]	+ (10≦Ki(cathepsin B)/Ki(calpain)<30)	++ (Ki(cathepsin L)/Ki(calpain) ratio of ≧50)	++ (Ki(cathepsin S)/Ki(calpain) ratio of ≧100)	≤ 40 nM	+ (10≦Ki(cathepsin K)/Ki(calpain)<30)
COc1ccc(Cl)cc1-c1ccn(-c2ncccc2C(=O)NC(Cc2ccccc2)C(=O)C(N)=O)n1 (centres unmarked) [Example 131, N-[3-Amino-2,3-dioxo-1-(phenylmethyl)propyl]-2-{3-[5-chloro-2-(methyloxy)phenyl]-1H-pyrazol-1-yl}pyridine-3-carboxamide]	++ (Ki(cathepsin B)/Ki(calpain) ratio of ≧30)	++ (Ki(cathepsin L)/Ki(calpain) ratio of ≧50)	++ (Ki(cathepsin S)/Ki(calpain) ratio of ≧100)	≤ 40 nM	++ (Ki(cathepsin K)/Ki(calpain) ratio of ≧30)
COc1ccc(CC(NC(=O)c2cccnc2-n2ccc(-c3ccc(F)cc3F)n2)C(=O)C(N)=O)cc1 (centres unmarked) [Example 97, N-(3-Amino-1-{[4-(methyloxy)phenyl]methyl}-2,3-dioxopropyl)-2-[3-(2,4-difluorophenyl)-1H-pyrazol-1-yl]pyridine-3-carboxamide]	++ (Ki(cathepsin B)/Ki(calpain) ratio of ≧30)	++ (Ki(cathepsin L)/Ki(calpain) ratio of ≧50)	++ (Ki(cathepsin S)/Ki(calpain) ratio of ≧100)	≤ 40 nM	+ (10≦Ki(cathepsin K)/Ki(calpain)<30)
NC(=O)C(=O)C(Cc1ccccc1)NC(=O)c1cccnc1-n1cc2c(n1)-c1cccc(Cl)c1OC2 (centres unmarked) [Example 175, N-[3-Amino-2,3-dioxo-1-(phenylmethyl)propyl]-2-(6-chlorochromeno[4,3-c]pyrazol-2(4H)-yl)pyridine-3-carboxamide]	++ (Ki(cathepsin B)/Ki(calpain) ratio of ≧30)	++ (Ki(cathepsin L)/Ki(calpain) ratio of ≧50)	++ (Ki(cathepsin S)/Ki(calpain) ratio of ≧100)	≤ 40 nM	++ (Ki(cathepsin K)/Ki(calpain) ratio of ≧30)
NC(=O)C(=O)C(Cc1ccccc1)NC(=O)c1cccnc1-n1cc2c(n1)-c1ccccc1S(=O)(=O)C2 (centres unmarked) [Example 174, N-[3-Amino-2,3-dioxo-1-(phenylmethyl)propyl]-2-(5,5-dioxidothiochromeno[4,3-c]pyrazol-2(4H)-yl)pyridine-3-carboxamide]	+ (10≦Ki(cathepsin B)/Ki(calpain)<30)	++ (Ki(cathepsin L)/Ki(calpain) ratio of ≧50)	++ (Ki(cathepsin S)/Ki(calpain) ratio of ≧100)	≤ 40 nM	+ (10≦Ki(cathepsin K)/Ki(calpain)<30)
COc1ccc(F)cc1-c1ccn(-c2ncccc2C(=O)NC(Cc2ccccc2)C(=O)C(N)=O)n1 (centres unmarked) [Example 130, N-[3-Amino-2,3-dioxo-1-(phenylmethyl)propyl]-2-{3-[5-fluoro-2-(methyloxy)phenyl]-1H-pyrazol-1-yl}pyridine-3-carboxamide]	++ (Ki(cathepsin B)/Ki(calpain) ratio of ≧30)	++ (Ki(cathepsin L)/Ki(calpain) ratio of ≧50)	++ (Ki(cathepsin S)/Ki(calpain) ratio of ≧100)	≤ 40 nM	++ (Ki(cathepsin K)/Ki(calpain) ratio of ≧30)
NC(=O)C(=O)C(Cc1ccc(OC(F)(F)F)cc1)NC(=O)c1cccnc1-n1ccc(-c2ccccc2)n1 (centres unmarked) [Example 133, N-[3-Amino-2,3-dioxo-1-({4-[(trifluoromethyl)oxy]phenyl}methyl)propyl]-2-(3-phenyl-1H-pyrazol-1-yl)pyridine-3-carboxamide]	++ (Ki(cathepsin B)/Ki(calpain) ratio of ≧30)	++ (Ki(cathepsin L)/Ki(calpain) ratio of ≧50)	++ (Ki(cathepsin S)/Ki(calpain) ratio of ≧100)	40 to 100 nM	++ (Ki(cathepsin K)/Ki(calpain) ratio of ≧30)
NC(=O)C(=O)C(Cc1ccccc1)NC(=O)c1cccnc1-n1ccc(-c2cccc(N3CCOCC3)c2)n1 (centres unmarked) [Example 58, N-(3-Amino-1-benzyl-2,3-dioxopropyl)-2-[3-(3-morpholin-4-ylphenyl)-1H-pyrazol-1-yl]nicotinamide]	+ (10≦Ki(cathepsin B)/Ki(calpain)<30)	++ (Ki(cathepsin L)/Ki(calpain) ratio of ≧50)	++ (Ki(cathepsin S)/Ki(calpain) ratio of ≧100)	≤ 40 nM	+ (10≦Ki(cathepsin K)/Ki(calpain)<30)
